# Laboratory results as given in the supplement of paper PMC11061612.
# Experiments:
# Experiment in all cases: combination Emax (second highest fraction inhibited in the dose matrix, 72 h); higher = more inhibition; extreme values may be limits of the assay
# [1] = system: 8505C (Thyroid Gland Carcinoma)
# Method in brief: (§1)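 After 24 hours at 37°C and 5% CO2 in 1536-well plates, cells in DMEM/F12 or RPMI plus 10% FBS received two-drug dose matrices for 72 hours. Viability came from CellTiter-Glo 2.0 luminescence and was scaled as inhibition, anchored at 0 by vehicle wells and at 1 by blank wells. Combination Emax is taken as the second-highest inhibition in the matrix, and Bliss excess as the observed combination effect less EA + EB − EA·EB, with EA and EB the single-agent effects.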
# [2] = system: CHSA8926 (Chondrosarcoma)
# Method in brief: as §1
# [3] = system: COR-L279 (Small Cell Lung Carcinoma)
# Method in brief: as §1
# [4] = system: DMS-114 (Small Cell Lung Carcinoma)
# Method in brief: as §1
# [5] = system: G-361 (Melanoma)
# Method in brief: as §1
# [6] = system: HCC1187 (Breast Carcinoma)
# Method in brief: as §1
# [7] = system: IM-95 (Gastric Carcinoma)
# Method in brief: as §1
# [8] = system: M059J (Glioblastoma)
# Method in brief: as §1
# [9] = system: MN-60 (B-Lymphoblastic Leukemia)
# Method in brief: as §1
# [10] = system: MOLM-13 (Acute Myeloid Leukemia)
# Method in brief: as §1
# [11] = system: NCI-H2731 (Mesothelioma)
# Method in brief: as §1
# [12] = system: NCI-H520 (Squamous Cell Lung Carcinoma)
# Method in brief: as §1
# [13] = system: NCI-H526 (Small Cell Lung Carcinoma)
# Method in brief: as §1
# [14] = system: NCI-H929 (Plasma Cell Myeloma)
# Method in brief: as §1
# [15] = system: PC-3 (Prostate Carcinoma)
# Method in brief: as §1
# [16] = system: SJSA-1 (Osteosarcoma)
# Method in brief: as §1
# [17] = system: SK-GT-2 (Gastric Carcinoma)
# Method in brief: as §1
# [18] = system: ST486 (Burkitt's Lymphoma)
# Method in brief: as §1
# [19] = system: T-T (Esophageal Squamous Cell Carcinoma)
# Method in brief: as §1
# [20] = system: VMRC-RCZ (Kidney Carcinoma)
# Method in brief: as §1
Structure (SMILES),combination Emax [1],combination Emax [2],combination Emax [3],combination Emax [4],combination Emax [5],combination Emax [6],combination Emax [7],combination Emax [8],combination Emax [9],combination Emax [10],combination Emax [11],combination Emax [12],combination Emax [13],combination Emax [14],combination Emax [15],combination Emax [16],combination Emax [17],combination Emax [18],combination Emax [19],combination Emax [20]
"Cc1c2c(nn1C)CSCc1cc(n(C)n1)CSc1cc(c3ccccc3c1)OCCCc1c(C(=O)O)n(C)c3c-2c(Cl)ccc13 [AZD5991] + CN(C)CCCOc1ccc(-c2ccc3ncc4c(c3c2)n(C2CCOCC2)c(=O)n4C)cn1 [AZD0156] (first compound max 1 µM, 7x7, partner max 1 µM)",0.609,0.497,0.496,0.548,0.956,0.988,0.824,0.338,0.177,1,0.193,0.509,0.378,1,0.282,0.322,0.182,0.805,0.901,0.21
"CN(C)CCCOc1ccc(-c2ccc3ncc4c(c3c2)n(C2CCOCC2)c(=O)n4C)cn1 [AZD0156] + O=C(c1cc(Cc2n[nH]c(=O)c3ccccc23)ccc1F)N1CCN(C(=O)C2CC2)CC1 [Olaparib] (first compound max 3 µM, partner max 3 µM)",0.392,0.467,0.692,0.414,0.267,0.197,0.151,0.318,0.119,0.563,0.201,0.473,0.408,0.863,0.199,0.331,0.273,0.621,0.346,0.181
"CCN(CCO)CCCOc1ccc2c(Nc3cc(CC(=O)Nc4cccc(F)c4)[nH]n3)ncnc2c1 [AZD2811] + C=CCn1c(=O)c2cnc(Nc3ccc(N4CCN(C)CC4)cc3)nc2n1-c1cccc(C(C)(C)O)n1 [AZD1775] (first compound max 1 µM, partner max 1 µM)",0.188,0.455,0.662,0.243,0.477,0.839,0.475,0.553,0.291,1,0.382,0.674,0.566,0.323,0.237,0.289,0.769,0.983,0.303,0.217
"CN(CCO)CC[C@H](CSc1ccccc1)Nc1ccc(S(=O)(=O)NC(=O)c2ccc(N3CCC([C@@H](O)c4ccccc4-c4ccc(Cl)cc4)CC3)cc2)cc1S(=O)(=O)C(F)(F)F [AZD4320] + CCN(CCO)CCCOc1ccc2c(Nc3cc(CC(=O)Nc4cccc(F)c4)[nH]n3)ncnc2c1 [AZD2811] (first compound max 1 µM, 7x7, partner max 1 µM)",0.369,0.643,1,0.247,0.41,0.914,0.859,0.69,0.238,1,0.492,0.689,0.961,0.227,0.366,0.335,0.554,0.979,0.282,0.149
"NC1(C(=O)N[C@@H](CCO)c2ccc(Cl)cc2)CCN(c2ncnc3[nH]ccc23)CC1 [Capivasertib] + CCN(CCO)CCCOc1ccc2c(Nc3cc(CC(=O)Nc4cccc(F)c4)[nH]n3)ncnc2c1 [AZD2811] (first compound max 10 µM, 7x7, partner max 1 µM)",0.304,0.46,0.935,0.456,0.46,0.833,0.427,0.517,0.336,0.993,0.398,0.688,0.588,1,0.401,0.489,0.417,0.834,0.331,0.461
"Cc1cc2ncnn2cc1Nc1ncc2c(n1)n(C1CCOCC1)c(=O)n2C [AZD7648] + CCN(CCO)CCCOc1ccc2c(Nc3cc(CC(=O)Nc4cccc(F)c4)[nH]n3)ncnc2c1 [AZD2811] (first compound max 10 µM, 7x7, partner max 1 µM)",0.212,0.47,0.757,0.306,0.359,0.824,0.424,0.457,0.185,1,0.409,0.704,0.356,0.838,0.243,0.359,0.198,0.831,0.276,0.276
"COc1nnc2ccc(N3CCC(c4ccc(OCCN5CCN(C)C(=O)[C@H]5C)cc4)CC3)nn12 [AZD5153] + Cn1cnc2c(F)c(Nc3ccc(Br)cc3Cl)c(C(=O)NOCCO)cc21 [Selumetinib] (first compound max 1 µM, 7x7, partner max 10 µM)",0.593,0.442,0.682,0.614,0.766,0.383,0.564,0.618,0.78,1,0.39,0.61,0.941,1,0.299,0.576,0.479,0.994,0.633,0.308
